What was measured:
[1] = test system: mouse model of memory impairment; assay: Y-shaped maze test in scopolamine mouse model of memory impairment; assay type: in vivo; details: ICR mice, scopolamine 3 mg/kg i.p., Y-shaped maze on day 7
Experimental: The memory-improving effect of araliadiol was confirmed by administering (orally by sonde) a composition containing arariadiol (a compound shown in Formula I) to a mouse model of memory impairment.
Experimental methods are described below. The following groups of ICR mice (male, 7 weeks old/purchased from SLC Japan) were established. The mice in each group, except for the untreated group, were treated with the composition orally administered by sonde and scopolamine administered intraperitoneally (i.p.). The composition contains a predetermined amount of araliadiol in distilled water. Scopolamine was administered at a dose of 3 mg per kg of mice to cause memory impairment in mice. […] For groups other than the untreated group, distilled water or the composition was administered daily from day 0 to day 6 (seven doses of the composition), with day 0 being the first day of administration of distilled water or the composition. On the 7th day, all groups of mice were tested in a Y-shaped maze test. Scopolamine was administered to all groups of mice except the untreated group 30 minutes before the start of the Y-shaped maze test. • Untreated group: 15 ICR mice that were treated with distilled water containing no araliadiol, but not with scopolamine. • Control group: 16 ICR mice were treated with distilled water containing no araliadiol and scopolamine. • Araliadiol 1 mg/kg group: 16 ICR mice were treated with a composition containing araliadiol (1 mg of araliadiol per 1 kg of mouse body weight per day: 1 mg/kg/day) and scopolamine. • Araliadiol […]: A group of 16 ICR mice that received a composition containing araliadiol (10 mg of araliadiol per kg of mouse body weight per day: 10 mg/kg/day) and a dose of SCOPE.
The Y-shaped maze device shown in FIG. 11 (made of gray acrylic: 40 cm long×10 cm wide×12 cm high) was used to conduct the Y-shaped maze test. In the Y-shaped maze test, mice were allowed to explore in the device, and the spontaneous alternations observed during the exploratory behavior were evaluated as short-term memory. The mice were placed at the tip of one of the three arms of the Y-shaped maze, allowed to explore freely in the maze for 8 minutes, and the arms they entered were recorded in order. The number of times for the mouse to enter each arm (total number of arm entries) and the number of combinations of consecutive entries into three different arms (number of alternation behaviors) were examined during the measurement period (8 minutes). The alternation behavior (%) was calculated from the following formula and used as an index of short-term memory.
Alternating behavior (%)=number of alternating actions/(total number of arm entries−2)×100

[2] = test system: human breast cancer cell line (MCF-7); details: MCF-7, Non-patent literature 1; cited from earlier work

C=C[C@H](O)C#CC#C[C@H](O)/C=C\CCCCC [Araliadiol, 3(S),8(R)-pentadeca-1,9(Z)-diene-4,6-diyne-3,8-diol]
Alternating behavior (%) ([1]; 1 mg/kg/day oral for 7 days): 50.87%
Alternating behavior (%) ([1]; 1 mg/kg/day oral for 7 days, listed as araliadiol): increase in the rate of alternation behavior
Alternating behavior (%) ([1]; 10 mg/kg/day oral for 7 days): 53.18(*) %
Alternating behavior (%) ([1]; 10 mg/kg/day oral for 7 days, listed as araliadiol): improvement in the rate of alternating behavior
cell cycle [2]: arrest the cell cycle
proliferation [2]: inhibit the proliferation
